Results on seven compounds are retold here after ChEMBL document CHEMBL3286253, “Design, synthesis, and structure-activity relationship studies of novel thioether pleuromutilin derivatives as potent antibacterial agents” (J Med Chem, 2014).

≈ marks a conversion by molar mass, not a printed value.

One may read the MIC as the lowest concentration found to suppress growth. The term IC50 denotes the point on the concentration scale where inhibition reaches its midpoint. A higher IC50 goes with weaker potency in that assay. In general, clearance refers to the rate of elimination divided by the concentration. By MRT is commonly meant the average time that molecules of a dose stay in the body. As usually defined, the AUC(0-t) is exposure summed from dosing to a finite time, without extrapolation to infinity.

The subject of data set [1] is Staphylococcus aureus. Nature of the data set: Antibacterial activity against methicillin-resistant Staphylococcus aureus after 16 hrs by agar dilution method. The data set is classed as functional. (In general: In agar dilution, organisms are placed on agar that contains the substance at set levels.)
The test system of data set [2] is Staphylococcus epidermidis. As to the kind of experiment: Antibacterial activity against methicillin-resistant Staphylococcus epidermidis after 16 hrs by agar dilution method. It counts as functional.
The target of the next data set is Cytochrome P450 2D6 (Homo sapiens, UniProt P10635). Nature of the data set: Inhibition of CYP2D6 in human liver microsomes using dextromethorphan as substrate after 15 mins by LC/MS/MS analysis. In general terms: Liver microsomes are a subcellular fraction often used to study metabolism.
In data set [3] the target is T1, Cytochrome P450 3A4 (Homo sapiens, UniProt P08684). Nature of the data set: Inhibition of CYP3A4 in human liver microsomes using midazolam as substrate after 15 mins by LC/MS/MS analysis.
The target of another data set is T2, Cytochrome P450 1A2 (Homo sapiens, UniProt P05177).
T2 sequence (P05177 whole entry): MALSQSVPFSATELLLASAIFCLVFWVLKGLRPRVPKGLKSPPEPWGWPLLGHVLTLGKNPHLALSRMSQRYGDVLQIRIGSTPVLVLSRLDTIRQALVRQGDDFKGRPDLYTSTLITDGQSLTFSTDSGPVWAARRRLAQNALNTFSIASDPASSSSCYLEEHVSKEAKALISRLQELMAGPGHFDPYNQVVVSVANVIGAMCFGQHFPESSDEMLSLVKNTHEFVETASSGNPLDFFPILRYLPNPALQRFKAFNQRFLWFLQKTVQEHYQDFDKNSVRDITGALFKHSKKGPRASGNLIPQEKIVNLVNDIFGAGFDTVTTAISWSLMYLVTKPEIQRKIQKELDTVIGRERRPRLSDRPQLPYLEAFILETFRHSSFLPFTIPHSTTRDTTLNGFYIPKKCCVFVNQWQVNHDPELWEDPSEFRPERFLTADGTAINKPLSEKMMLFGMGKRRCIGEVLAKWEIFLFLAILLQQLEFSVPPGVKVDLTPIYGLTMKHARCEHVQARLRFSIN
As to the kind of experiment: Inhibition of CYP1A2 in human liver microsomes using phenacetin as substrate after 15 mins by LC/MS/MS analysis.

Data set [4] addresses T1, Cytochrome P450 3A4. Nature of the data set: Inhibition of CYP3A4 in human liver microsomes using testosterone as substrate after 15 mins by LC/MS/MS analysis.
A further data set has as its target Cytochrome P450 2C19 (Homo sapiens, UniProt P33261). Nature of the data set: Inhibition of CYP2C19 in human liver microsomes using mephenytoin as substrate after 15 mins by LC/MS/MS analysis.
The target of another data set is Cytochrome P450 2C9 (Homo sapiens, UniProt P11712). As to the kind of experiment: Inhibition of CYP2C9 in human liver microsomes using tolbutamide as substrate after 15 mins by LC/MS/MS analysis.
The next data set deals with Streptococcus pneumoniae. As to the kind of experiment: Antibacterial activity against penicillin-resistant Streptococcus pneumoniae after 16 hrs by agar dilution method. It counts as functional.
Data set [5] deals with Staphylococcus epidermidis. As to the kind of experiment: Antibacterial activity against methicillin-sensitive Staphylococcus epidermidis after 16 hrs by agar dilution method. It counts as functional.
For data set [6], the system named is Staphylococcus aureus. As to the kind of experiment: Antibacterial activity against methicillin-sensitive Staphylococcus aureus after 16 hrs by agar dilution method. The data set is classed as functional.
Data set [7] deals with Staphylococcus aureus. As to the kind of experiment: Antibacterial activity against Staphylococcus aureus […] after 16 hrs by agar dilution method. It counts as functional.
The nature of data set [8]: Elimination half life in Sprague-Dawley rat at 2 mg/kg, iv administered as cassette dosing. It counts as ADME, organism-based. More on the design: dose 2 mg/kg, route intravenous. Particulars: in vivo, read-out: beta t1/2 (converted).
Data set [9] in a line: Clearance in Sprague-Dawley rat at 2 mg/kg, iv administered as cassette dosing. More on the design: dose 2 mg/kg, route intravenous. It counts as ADME, organism-based. The note with it: in vivo.
Data set [10] is described as follows: Mean residence time in Sprague-Dawley rat at 2 mg/kg, iv administered as cassette dosing. Particulars: in vivo. The data set is classed as ADME, organism-based. More on the design: dose 2 mg/kg, route intravenous.
Data set [11] can be described thus: AUC (0 to t) in Sprague-Dawley rat at 2 mg/kg, iv administered as cassette dosing. The data set is classed as ADME, organism-based. More on the design: dose 2 mg/kg, route intravenous. The note with it: plasma.
Data set [12] in a line: Volume of distribution at steady state in Sprague-Dawley rat at 2 mg/kg, iv administered as cassette dosing. The data set is classed as ADME, organism-based. More on the design: dose 2 mg/kg, route intravenous. The note with it: in vivo, read-out: Vdss.

Cytochrome P450 2C19, sequence (P33261 whole entry): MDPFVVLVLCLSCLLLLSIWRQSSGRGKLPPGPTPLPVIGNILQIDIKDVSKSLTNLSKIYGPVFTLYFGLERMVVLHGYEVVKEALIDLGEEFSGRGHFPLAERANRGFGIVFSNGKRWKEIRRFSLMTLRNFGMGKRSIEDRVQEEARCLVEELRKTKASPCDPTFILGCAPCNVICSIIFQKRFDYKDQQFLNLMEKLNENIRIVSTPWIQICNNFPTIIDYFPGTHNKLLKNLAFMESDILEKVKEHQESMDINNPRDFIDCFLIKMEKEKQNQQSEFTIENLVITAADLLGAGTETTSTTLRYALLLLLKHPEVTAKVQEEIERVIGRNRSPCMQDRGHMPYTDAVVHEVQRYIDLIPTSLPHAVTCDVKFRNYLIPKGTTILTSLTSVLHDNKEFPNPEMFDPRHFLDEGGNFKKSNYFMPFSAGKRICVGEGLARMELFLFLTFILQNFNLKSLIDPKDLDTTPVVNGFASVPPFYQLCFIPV
T1 sequence (P08684 whole entry): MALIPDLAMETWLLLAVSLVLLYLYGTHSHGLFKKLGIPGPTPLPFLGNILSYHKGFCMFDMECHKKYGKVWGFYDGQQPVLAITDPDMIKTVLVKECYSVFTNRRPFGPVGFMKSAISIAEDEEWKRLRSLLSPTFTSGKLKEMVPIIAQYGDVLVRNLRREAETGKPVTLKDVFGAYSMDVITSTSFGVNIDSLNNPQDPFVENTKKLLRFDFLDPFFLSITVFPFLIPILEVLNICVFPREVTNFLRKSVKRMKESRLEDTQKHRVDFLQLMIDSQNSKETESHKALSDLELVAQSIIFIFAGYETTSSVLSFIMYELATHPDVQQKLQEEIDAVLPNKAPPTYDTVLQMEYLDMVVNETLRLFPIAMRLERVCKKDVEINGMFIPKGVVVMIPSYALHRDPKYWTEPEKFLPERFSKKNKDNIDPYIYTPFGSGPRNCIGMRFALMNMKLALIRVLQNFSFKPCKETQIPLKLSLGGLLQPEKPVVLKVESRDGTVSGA
Cytochrome P450 2D6, sequence (P10635 whole entry): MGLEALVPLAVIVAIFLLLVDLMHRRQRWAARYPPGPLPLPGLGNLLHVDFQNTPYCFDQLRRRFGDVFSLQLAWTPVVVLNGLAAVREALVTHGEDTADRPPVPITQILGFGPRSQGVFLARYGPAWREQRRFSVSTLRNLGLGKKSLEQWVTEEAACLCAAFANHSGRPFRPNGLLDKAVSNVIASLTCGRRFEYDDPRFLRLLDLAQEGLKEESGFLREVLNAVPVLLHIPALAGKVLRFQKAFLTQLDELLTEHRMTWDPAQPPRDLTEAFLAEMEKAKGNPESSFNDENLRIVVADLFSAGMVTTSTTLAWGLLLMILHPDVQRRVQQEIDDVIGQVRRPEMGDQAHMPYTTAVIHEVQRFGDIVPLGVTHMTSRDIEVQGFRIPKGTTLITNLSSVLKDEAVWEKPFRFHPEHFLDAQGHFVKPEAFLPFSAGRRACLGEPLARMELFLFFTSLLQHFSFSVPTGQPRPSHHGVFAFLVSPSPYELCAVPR
Cytochrome P450 2C9, sequence (P11712 whole entry): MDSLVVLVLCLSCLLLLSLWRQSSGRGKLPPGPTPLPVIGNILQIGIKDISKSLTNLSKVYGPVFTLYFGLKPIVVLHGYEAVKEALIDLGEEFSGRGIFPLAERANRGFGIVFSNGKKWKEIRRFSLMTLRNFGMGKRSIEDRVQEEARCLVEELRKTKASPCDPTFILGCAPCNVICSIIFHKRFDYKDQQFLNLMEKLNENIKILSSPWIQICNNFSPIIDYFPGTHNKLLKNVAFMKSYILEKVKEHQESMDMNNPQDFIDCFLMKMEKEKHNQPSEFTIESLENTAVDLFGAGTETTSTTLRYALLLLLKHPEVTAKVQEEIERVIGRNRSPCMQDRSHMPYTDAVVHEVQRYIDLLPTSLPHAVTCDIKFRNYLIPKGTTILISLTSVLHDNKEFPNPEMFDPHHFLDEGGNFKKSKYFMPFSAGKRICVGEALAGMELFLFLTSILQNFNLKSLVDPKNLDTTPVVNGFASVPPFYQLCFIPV

With `C=C[C@]1(C)C[C@@H](OC(=O)CSc2cccc(CO)c2)[C@]2(C)[C@H](C)CC[C@]3(CCC(=O)[C@H]32)[C@@H](C)[C@@H]1O`, the MIC (against Staphylococcus aureus [1]; in [2]; against Streptococcus pneumoniae; in data set [5]; in the data set on Staphylococcus aureus [6]; in the data set with Staphylococcus aureus [7]) was 0.063 µg/mL (≈ 0.126 µM) in each case. The IC50 at Cytochrome P450 2D6 is greater than 25 µM; at Cytochrome P450 3A4 [3] it was 1950 nM; on Cytochrome P450 1A2, greater than 25 µM; at Cytochrome P450 3A4 [4], 1900 nM; against Cytochrome P450 2C19, 15.4 µM; at Cytochrome P450 2C9 it was 11.1 µM.
As for `C=C[C@]1(C)C[C@@H](OC(=O)CSc2cncc(NC(=O)[C@@H](N)CC(C)C)c2)[C@]2(C)[C@H](C)CC[C@]3(CCC(=O)[C@H]32)[C@@H](C)[C@@H]1O`, the MIC in the data set with Staphylococcus aureus [1] was 0.063 µg/mL (≈ 0.105 µM); in data set [2] it was 0.063 µg/mL (≈ 0.105 µM); in the data set on Streptococcus pneumoniae, 0.063 µg/mL (≈ 0.105 µM); in [5] it was 0.063 µg/mL (≈ 0.105 µM); with Staphylococcus aureus [6], 0.063 µg/mL (≈ 0.105 µM); against Staphylococcus aureus [7] it was 0.031 µg/mL (≈ 0.0517 µM). In data set [8], the half-life was 37.8 min. Besides, the clearance in data set [9] was 488 mL/min/kg. The compound further displayed an MRT in data set [10] of 21 min. In data set [11], this compound came in with an AUC(0-t) of 69 ng·h/mL. In addition, the Vd in data set [12] was determined as 10.3 L/kg.
For the compound `C=C[C@]1(C)C[C@@H](OC(=O)CSc2ccccn2)[C@]2(C)[C@H](C)CC[C@]3(CCC(=O)[C@H]32)[C@@H](C)[C@@H]1O`, the MIC with Staphylococcus aureus [1] stood at 0.031 µg/mL (≈ 0.0657 µM); in [2] it was 0.031 µg/mL (≈ 0.0657 µM); against Streptococcus pneumoniae, 0.031 µg/mL (≈ 0.0657 µM); in data set [5], 0.031 µg/mL (≈ 0.0657 µM); against Staphylococcus aureus [6], 0.031 µg/mL (≈ 0.0657 µM); against Staphylococcus aureus [7], 0.063 µg/mL (≈ 0.134 µM). Besides, the IC50 was greater than 10 µM on Cytochrome P450 2D6; 1250 nM at Cytochrome P450 3A4 [3]; greater than 10 µM against Cytochrome P450 1A2; 1360 nM against Cytochrome P450 3A4 [4]; greater than 10 µM at Cytochrome P450 2C19; greater than 10 µM against Cytochrome P450 2C9.
Turning to `C=C[C@]1(C)C[C@@H](OC(=O)CSc2cncc(NC(=O)CN)c2)[C@]2(C)[C@H](C)CC[C@]3(CCC(=O)[C@H]32)[C@@H](C)[C@@H]1O`, the MIC was found to be 0.063 µg/mL (≈ 0.116 µM) against Staphylococcus aureus [1]; 0.125 µg/mL (≈ 0.23 µM) in data set [2]; 0.063 µg/mL (≈ 0.116 µM) in the data set with Streptococcus pneumoniae; 0.125 µg/mL (≈ 0.23 µM) in data set [5]; 0.063 µg/mL (≈ 0.116 µM) in the data set with Staphylococcus aureus [6]; 0.063 µg/mL (≈ 0.116 µM) against Staphylococcus aureus [7]. Besides, the half-life in data set [8] is 20.4 min. For the same compound, in [9], the clearance is 828 mL/min/kg. Moreover, the mean residence time (MRT) in data set [10] came to 16.8 min. The AUC(0-t) in [11] worked out at 41 ng·h/mL. Also, the Vd in data set [12] stood at 13.8 L/kg.
Consider `C=C[C@]1(C)C[C@@H](OC(=O)CSc2cncc(NC(=O)CN3CCCC(O)C3)c2)[C@]2(C)[C@H](C)CC[C@]3(CCC(=O)[C@H]32)[C@@H](C)[C@@H]1O` (stereo not given in full), for which the MIC (in the data set on Staphylococcus aureus [1]; in data set [2]; in the data set with Streptococcus pneumoniae; in data set [5]; against Staphylococcus aureus [6]; with Staphylococcus aureus [7]) was 0.063 µg/mL (≈ 0.1 µM) each time. Besides, the IC50 is greater than 25 µM at Cytochrome P450 2D6; 1080 nM on Cytochrome P450 3A4 [3]; greater than 25 µM at Cytochrome P450 1A2; 1240 nM against Cytochrome P450 3A4 [4]; 12.4 µM on Cytochrome P450 2C19; greater than 25 µM at Cytochrome P450 2C9. Further, in [8], the half-life was 40.2 min. Besides, the clearance in data set [9] is 65 mL/min/kg. In data set [10], this compound registered an MRT of 28.8 min. This compound also showed an AUC(0-t) in [11] of 522 ng·h/mL. Also, the Vd in data set [12] came to 1.9 L/kg.
For `C=C[C@]1(C)C[C@@H](OC(=O)CSc2cncc(NC(=O)CN3CCC[C@H]3CN)c2)[C@]2(C)[C@H](C)CC[C@]3(CCC(=O)[C@H]32)[C@@H](C)[C@@H]1O`, the MIC turned out to be 1 µg/mL (≈ 1.6 µM) in the data set on Staphylococcus aureus [1]; 0.5 µg/mL (≈ 0.798 µM) in data set [2]; 0.063 µg/mL (≈ 0.101 µM) in the data set on Streptococcus pneumoniae; 0.5 µg/mL (≈ 0.798 µM) in data set [5]; 0.5 µg/mL (≈ 0.798 µM) in the data set on Staphylococcus aureus [6]; 0.25 µg/mL (≈ 0.399 µM) with Staphylococcus aureus [7].
Take `C=C[C@]1(C)C[C@@H](OC(=O)CSc2ccc(N)cn2)[C@]2(C)[C@H](C)CC[C@]3(CCC(=O)[C@H]32)[C@@H](C)[C@@H]1O`: the MIC against Staphylococcus aureus [1] worked out at 0.063 µg/mL (≈ 0.129 µM); in data set [2] it was 0.063 µg/mL (≈ 0.129 µM); in the data set on Streptococcus pneumoniae it was 0.063 µg/mL (≈ 0.129 µM); in data set [5], 0.063 µg/mL (≈ 0.129 µM); against Staphylococcus aureus [6] it was 0.063 µg/mL (≈ 0.129 µM); against Staphylococcus aureus [7] it was 0.125 µg/mL (≈ 0.257 µM).
